For test [1], the target named is T1, STING (Homo sapiens, UniProt Q86WV6, G230A/H232R/R293Q/R71H).
T1 construct: host or cells: THP-1 / THP1-Dual / THP1-Lucia ISG cells
Kind of test: cGAMP dose-response IFN induction in the presence of increasing compound concentrations. Particulars: FIGS. 16A-16D. In kind it is cell-based. As for the experimental part: Compounds UT009, UT019, UT073 and UT122 were tested for their ability to interfere with cGAMP induced STING signaling. FIGS. 16A-16D show dose response plots of cGAMP induced IFN induction in the presence of increasing concentrations of each compound.
Compounds UT017, UT018, UT019 and UT0122 were tested for their ability to interfere with STING signaling. Interferon production in the presence of increasing concentrations of UT017, UT018, UT019 or UT0122 were measured in THP-1 cell lines under basal conditions. […] Compound UT0122 was further tested in THP1-Lucia™ ISG cells for interferon production at varying concentration, in the presence of an increasing dose of a STING agonist cGAMP.

In test [2] the target is T1, STING. Kind of test: STING pathway activity in THP1-Dual/THP-1 cells upon cGAMP or MSA-2 stimulation (luciferase/interferon readout). In kind it is cell-based. The note with it: THP-1 cells. From the text: Methods of measuring STING activity and by extension, the activity of the compounds discussed herein, are known in the art. As an example, the STING pathway activity may be evaluated using reporter cell lines where a reporter gene (i.e., luciferase, GFP) is expressed under direct or indirect control of interferon response elements. For example, in an exemplary embodiment, the STING pathway can be measured using THP1-Dual™ cells (InvivoGen) which express the Lucia gene (a secreted luciferase reporter gene) under the control of an ISG54 minimal promoter in conjunction with five IFN-stimulated response elements. The STING pathway, when activated, stimulates interferon release which, in this model, will increase luciferase expression in a detectable manner. When inhibited, interferon release will be decreased, reducing luciferase expression in a detectable manner. The compounds can optionally be tested in the presence of external stimulation (i.e., using cGAMP, a natural agonist of STING, or MSA-2).
The STING pathway activity was evaluated in THP1-Dual™ cells (Invivogen). […] After incubating at 37° C. for 16 hours, the luciferase activity was measured by QUANTI-Luc™ (Invivogen).

The target in a further test is T2, human STING (Homo sapiens, UniProt Q86WV6, H232R).
T2 construct: human STING residues 1-343, excluding the C-terminal tail; T6SS immunity protein 3 (Tsi3) from Pseudomonas aeruginosa (C, cleaved yes); human rhinovirus 3C protease cleavage site (C); made in house; host or cells: HEK293F cells (pEZT-BM vector)
T2 sequence (Q86WV6 1-343 H232R): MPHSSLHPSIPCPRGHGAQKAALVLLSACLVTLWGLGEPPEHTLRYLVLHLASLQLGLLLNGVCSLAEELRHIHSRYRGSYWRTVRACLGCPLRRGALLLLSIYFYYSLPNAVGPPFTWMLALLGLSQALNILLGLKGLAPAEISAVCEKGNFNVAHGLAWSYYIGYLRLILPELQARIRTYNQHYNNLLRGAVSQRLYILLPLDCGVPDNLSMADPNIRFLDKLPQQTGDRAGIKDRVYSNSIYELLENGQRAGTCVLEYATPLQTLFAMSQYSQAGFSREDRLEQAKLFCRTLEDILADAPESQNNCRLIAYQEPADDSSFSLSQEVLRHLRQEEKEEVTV
Kind of test: Cryo-EM structure of human STING in complex with compound. It counts as binding. As for the experimental part:
Cryo-EM data collection and image processing. Purified wild type human STING at 50 μM were incubated with cGAMP at 100 μM and C53 at 100 μM for formation of the protein/ligands complex. The complex was purified using a Superose 6 10/300 gel filtration column (GE healthcare) in buffer C. Peak fractions were collected and concentrated to 2.9 mg/ml. Additional cGAMP (100 μM) and C53 (100 μM) were added to ensure saturation of the protein by the ligands. The sample was applied to a glow-discharged Quantifoil R1.2/1.3 300-mesh gold holey carbon grid (Quantifoil, Micro Tools GmbH, Germany), blotted under 100% humidity at 4° C. and plunged into liquid ethane using a Mark IV Vitrobot (FEI).
Micrographs were collected on a Titan Krios microscope (FEI) with a K3 Summit direct electron detector (Gatan) in the super-resolution counting mode operated at 300 kV. The slit width of the GIF-Quantum energy filter was set to 20 eV. The nominal magnification was 81,000× and the pixel size of 1.08 Å. Micrographs were dose-fractioned into 36 frames with a total exposure time of 7.2 s at the dose rate of 1.6 e^−/Å^2/frame in the correlated double sampling (CDS) mode. Movie frames were motion-corrected and dose-weighted using the Motioncorr2 program (version 1.2). GCTF 1.06 was used for CTF correction. […] Local resolution was calculated in RELION (FIG. 6B). […]

Some results are limits rather than exact numbers.

What is called inhibition is the change of the read-out against control, counted positive when it falls. Higher therefore signals a response far below the control.

T1 sequence (Q86WV6 whole entry R71H/G230A/H232R/R293Q): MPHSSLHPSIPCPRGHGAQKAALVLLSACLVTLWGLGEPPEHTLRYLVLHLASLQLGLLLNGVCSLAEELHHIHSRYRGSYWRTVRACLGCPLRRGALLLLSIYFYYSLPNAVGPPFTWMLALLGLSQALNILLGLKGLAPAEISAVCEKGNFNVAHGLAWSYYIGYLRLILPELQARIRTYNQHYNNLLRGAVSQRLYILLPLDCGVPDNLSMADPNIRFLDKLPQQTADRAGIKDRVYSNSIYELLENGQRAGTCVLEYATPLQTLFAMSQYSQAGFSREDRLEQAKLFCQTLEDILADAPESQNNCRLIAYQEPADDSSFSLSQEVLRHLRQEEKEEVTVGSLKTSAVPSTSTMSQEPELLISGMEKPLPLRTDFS

With `CC1(C)C(=O)N(Cc2c(F)cccc2C(F)(F)F)c2cc(C(=O)NCc3c(F)cc(F)cc3F)ccc21` [UT009, 1-(2-fluoro-6-(trifluoromethyl)benzyl)-3,3-dimethyl-2-oxo-N-(2,4,6-trifluorobenzyl)indoline-6-carboxamide], the “cGAMP induced IFN induction in the presence of increasing concentrations of compound” value at STING [1] is reported as “dose-dependent suppression of interferon production”. In addition, at STING [2] (10 μM compound, cGAMP (100 μM) or MSA-2 (10 μM) stimulation), the inhibition at 10 µM was over 50%. At STING [2] (10 μM MSA2, increasing concentrations of compound), the “Induction of interferon production in the presence of MSA2” value is reported as “inhibited the induction of interferon production in a dose dependent manner”. The “Interferon production in the presence of cGAMP” value on STING [2] (100 μM cGAMP, increasing concentrations of compound) is on record as “reduction in interferon production with increasing concentration”. The “Binding site in human STING (cryo-EM)” value at human STING is listed as “bind at the same binding pocket as C53”.

For the origin of these results see patent publication US20250170120A1, “ALLOSTERIC STING MODULATORS AND METHODS OF USE” (THE BOARD OF REGENTS OF THE UNIVERSITY OF TEXAS SYSTEM, priority 2022, published 2025).
